Results as given in US4454330A, “Two-functional-group-containing terpenoids, processes for the preparation of the same, and anti-ulcer agents containing the same” (Eisai Co., Ltd., priority 1980, dated 1984).

System: cold-restaint stress ulcer
Test: Effect on cold-restraint stress ulcer (Levine' method, rats)
Assay type: in vivo, rats (SD family
Details: SD rats, female, about 170 g, 8-10 weeks age
Description: (1) Effect on Cold-Restaint Stress Ulcer
The inhibition effect of the test compound on the cold-restaint stress ulcer was determined according to the Levine' method using rats (SD family, female, weight about 170 g, 8-10 weeks age). The test compounds are set forth below.

| Structure (SMILES) | Inhibition Ratio (%) on the occurrence of the cold restrictive stress ulcer [%] |
| --- | --- |
| CC(=CCO)CCC=C(C)CCC=C(C)C(=O)O [Compound A, 12-Hydroxy-2,6,10-trimethyl-2,6,10-dodecatrienoic acid] | 74.6 |
| CC(=CCO)CCC=C(C)CCC=C(C)CCC=C(C)C(=O)O [Compound C, 16-Hydroxy-2,6,10,14-tetramethyl-2,6,10,14-hexadecatetraenoic acid] | 79.2 |
| CC(=CCO)CCC=C(C)CCC=C(C)CCC=C(C)CCC=C(C)C(=O)O [Compound D, 20-Hydroxy-2,6,10,14,18-pentamethyl-2,6,10,14,18-eicosapentaenoic acid] | 49.5 |
